Experimental data: patent publication US8933233B2, “1,3,4-oxadiazole and 1,3,4-thiadiazole β-lactamase inhibitors” (priority 2012, dated 2015)
Structures can show the parent of a compound that is named as a salt.

Columns and labels:
[1] = tested on: bacterial strains that express the class D cephalosporinase OXA-15; assay: Synergy MIC / standard BLI potentiation MIC assay, strains expressing OXA-15; assay type: cell-based, E. coli; details: in presence of a β-lactam; comparator Avibactam (CCC)
How it was run: (§1)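 Broth microdilution in CAMHB per CLSI M07-A9, ~10^5 CFU/mL inoculum, 18–20 h at 37 °C with aeration; engineered E. coli kept with 25 μg/mL tetracycline. β-lactam 2-fold from 128 to 0.13 μg/mL with BLI fixed at 4 μg/mL, or BLI serially diluted with β-lactam fixed; MIC is lowest concentration without visible turbidity.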

[2] = tested on: bacterial strains that express KPC β-lactamases; assay: Synergy MIC / standard BLI potentiation MIC assay, strains expressing KPC β-lactamases; assay type: cell-based, isogenic E. coli and clinical isolates; details: more active for at least one KPC strain and/or better spectrum; comparator Avibactam
How it was run: as §1

O=C1N2C[C@@H](CC[C@H]2c2nnc(CCN3CCNCC3)o2)N1OS(=O)(=O)O [Compound 776, (2S,5R)-7-oxo-2-(5-(2-(piperazin-1-yl)ethyl)-1,3,4-oxadiazol-2-yl)-1,6-diazabicyclo[3.2.1]octan-6-yl hydrogen sulfate]
activity against bacterial strains that express OXA-15, compared with Avibactam [1]: more active than Avibactam
activity and/or spectrum of activity against bacterial strains that express KPC β-lactamases, compared with Avibactam [2]: more active than Avibactam

N[C@H]1C[C@@H](Cc2nnc([C@@H]3CC[C@@H]4CN3C(=O)N4OS(=O)(=O)O)o2)C1 [Compound 728, (2S,5R)-2-(5-(((1s,3R)-3-aminocyclobutyl)methyl)-1,3,4-oxadiazol-2-yl)-7-oxo-1,6-diazabicyclo[3.2.1]octan-6-yl hydrogen sulfate]
activity against bacterial strains that express OXA-15, compared with Avibactam [1]: more active than Avibactam
activity and/or spectrum of activity against bacterial strains that express KPC β-lactamases, compared with Avibactam [2]: more active than Avibactam

O=C1N2C[C@@H](CC[C@H]2c2nnc(CC3CCNC3)o2)N1OS(=O)(=O)O (stereo partly drawn) [Compound 764, (2S,5R)-7-oxo-2-(5-(pyrrolidin-3-ylmethyl)-1,3,4-oxadiazol-2-yl)-1,6-diazabicyclo[3.2.1]octan-6-yl hydrogen sulfate]
activity against bacterial strains that express OXA-15, compared with Avibactam [1]: more active than Avibactam
activity and/or spectrum of activity against bacterial strains that express KPC β-lactamases, compared with Avibactam [2]: more active than Avibactam

CNCCc1nnc([C@@H]2CC[C@@H]3CN2C(=O)N3OS(=O)(=O)O)o1 [Compound 722, (2S,5R)-2-(5-(2-(methylamino)ethyl)-1,3,4-oxadiazol-2-yl)-7-oxo-1,6-diazabicyclo[3.2.1]octan-6-yl hydrogen sulfate]
activity against bacterial strains that express OXA-15, compared with Avibactam [1]: more active than Avibactam
activity and/or spectrum of activity against bacterial strains that express KPC β-lactamases, compared with Avibactam [2]: more active than Avibactam

O=C1N2C[C@@H](CC[C@H]2c2nnc(CCCCNC3CCNCC3)o2)N1OS(=O)(=O)O [Compound 772, (2S,5R)-7-oxo-2-(5-(4-(piperidin-4-ylamino)butyl)-1,3,4-oxadiazol-2-yl)-1,6-diazabicyclo[3.2.1]octan-6-yl hydrogen sulfate]
activity against bacterial strains that express OXA-15, compared with Avibactam [1]: more active than Avibactam
activity and/or spectrum of activity against bacterial strains that express KPC β-lactamases, compared with Avibactam [2]: more active than Avibactam

O=C1N2C[C@@H](CC[C@H]2c2nnc(C3CCNC3)o2)N1OS(=O)(=O)O (stereo partly drawn) [Compound 710, (2S,5R)-7-oxo-2-(5-(pyrrolidin-3-yl)-1,3,4-oxadiazol-2-yl)-1,6-diazabicyclo[3.2.1]octan-6-yl hydrogen sulfate]
activity against bacterial strains that express OXA-15, compared with Avibactam [1]: more active than Avibactam
activity and/or spectrum of activity against bacterial strains that express KPC β-lactamases, compared with Avibactam [2]: more active than Avibactam

N=C(N)NCc1nnc([C@@H]2CC[C@@H]3CN2C(=O)N3OS(=O)(=O)O)s1 [Compound 721, (2S,5R)-2-(5-(guanidinomethyl)-1,3,4-thiadiazol-2-yl)-7-oxo-1,6-diazabicyclo[3.2.1]octan-6-yl hydrogen sulfate]
activity against bacterial strains that express OXA-15, compared with Avibactam [1]: more active than Avibactam
activity and/or spectrum of activity against bacterial strains that express KPC β-lactamases, compared with Avibactam [2]: more active than Avibactam

N=C(N)NC[C@@H](O)c1nnc([C@@H]2CC[C@@H]3CN2C(=O)N3OS(=O)(=O)O)o1 [Compound 731, (2S,5R)-2-(5-((R)-2-guanidino-1-hydroxyethyl)-1,3,4-oxadiazol-2-yl)-7-oxo-1,6-diazabicyclo[3.2.1]octan-6-yl hydrogen sulfate]
activity against bacterial strains that express OXA-15, compared with Avibactam [1]: more active than Avibactam
activity and/or spectrum of activity against bacterial strains that express KPC β-lactamases, compared with Avibactam [2]: more active than Avibactam

CNCCCc1nnc([C@@H]2CC[C@@H]3CN2C(=O)N3OS(=O)(=O)O)o1 [Compound 734, 2S,5R)-2-(5-(3-(methylamino)propyl)-1,3,4-oxadiazol-2-yl)-7-oxo-1,6-diazabicyclo[3.2.1]octan-6-yl hydrogen sulfate]
activity against bacterial strains that express OXA-15, compared with Avibactam [1]: more active than Avibactam
activity and/or spectrum of activity against bacterial strains that express KPC β-lactamases, compared with Avibactam [2]: more active than Avibactam

N=C(N)N[C@H]1C[C@@H](c2nnc([C@@H]3CC[C@@H]4CN3C(=O)N4OS(=O)(=O)O)s2)C1 [Compound 784, (2S,5R)-2-(5-((1s,3R)-3-guanidinocyclobutyl)-1,3,4-thiadiazol-2-yl)-7-oxo-1,6-diazabicyclo[3.2.1]octan-6-yl hydrogen sulfate]
activity against bacterial strains that express OXA-15, compared with Avibactam [1]: more active than Avibactam
activity and/or spectrum of activity against bacterial strains that express KPC β-lactamases, compared with Avibactam [2]: more active than Avibactam

N[C@@H]1CN[C@@H](c2nnc([C@@H]3CC[C@@H]4CN3C(=O)N4OS(=O)(=O)O)o2)C1 [Compound 763, (2S,5R)-2-(5-((2R,4S)-4-aminopyrrolidin-2-yl)-1,3,4-oxadiazol-2-yl)-7-oxo-1,6-diazabicyclo[3.2.1]octan-6-yl hydrogen sulfate]
activity against bacterial strains that express OXA-15, compared with Avibactam [1]: more active than Avibactam
activity and/or spectrum of activity against bacterial strains that express KPC β-lactamases, compared with Avibactam [2]: more active than Avibactam

N[C@@H]1CN[C@H](c2nnc([C@@H]3CC[C@@H]4CN3C(=O)N4OS(=O)(=O)O)o2)C1 [Compound 760, (2S,5R)-2-(5-((2S,4S)-4-aminopyrrolidin-2-yl)-1,3,4-oxadiazol-2-yl)-7-oxo-1,6-diazabicyclo[3.2.1]octan-6-yl hydrogen sulfate]
activity against bacterial strains that express OXA-15, compared with Avibactam [1]: more active than Avibactam
activity and/or spectrum of activity against bacterial strains that express KPC β-lactamases, compared with Avibactam [2]: more active than Avibactam

O=C1N2C[C@@H](CC[C@H]2c2nnc(CN3CCNCC3)o2)N1OS(=O)(=O)O [Compound 777, (2S,5R)-7-oxo-2-(5-(piperazin-1-ylmethyl)-1,3,4-oxadiazol-2-yl)-1,6-diazabicyclo[3.2.1]octan-6-yl hydrogen sulfate]
activity against bacterial strains that express OXA-15, compared with Avibactam [1]: more active than Avibactam
activity and/or spectrum of activity against bacterial strains that express KPC β-lactamases, compared with Avibactam [2]: more active than Avibactam
